Reference: patent US10077289B2, “Cyclosporins modified on the MeBmt sidechain by heterocyclic rings” (priority 2015, dated 2018)
pIC50, pKi: −log10 of the molar value. Values after ≈ are worked out from the molar mass of the structure shown. Where two headings read alike, the source gives them in different places.

Columns and labels:
[1] = Water Solubility Assay (measured in pH 7.8 buffer); format: physicochemical; details: 25 °C, kinetic from dmso stock
Procedure: Water Solubility Assay (Measured in pH 7.8 Buffer)
The aqueous solubility of a compound of Formula I in buffer (pH 7.8) was measured by recording the onset of precipitation of the compound as a function of increasing concentration. The onset of precipitation, if it occurred, was detected by an increase in absorbance at 650 nm.
Assay Buffer: 35 mM HEPES pH 7.8
Stock solutions of Control and Test Compounds: 10 mM in 100% DMSO.
10 mM stock solutions of control and test compounds were prepared in 100% DMSO.
Assay buffer (247.5 μl) was placed into flat bottomed transparent 96-well plate. For blank samples DMSO (2.5 μl) was added. For test and control samples 2.5 μl of the appropriate DMSO dilution stocks were added to the appropriate well. All test and control compounds were performed in triplicate.
The plates were sealed with adhesive plate seal and shaken at 250 rpm at 25° C. for 18 h on a plate shaker. After incubation the plate seals were taken off and any bubbles observed in wells removed. The plates were read on a SpectraMaxM5 with a 5 s pre-shake at 650 nm. Data files were transferred to the appropriate worksheet and the solubility range of the compounds was calculated from the data. The values shown in the Tables indicate the concentration in μM (micromolar) at which the compound remains in solution.

[2] = target: Human recombinant cyclophilin A (Cyp A) (Homo sapiens (Human), UniProt P62937); assay: Protease-free PPIase assay
Procedure: Protease-Free PPIase Assay
The protease-free PPIase assay measures the rate of cis to trans conversion of a peptide substrate catalyzed by the enzyme cyclophilin A. Addition of a cyclophilin A inhibitor (e.g., a test compound) slows the catalyzed rate and a Ki value is obtained.
35 mM HEPES pH 7.8, filtered through a 0.2 μm filter. 50 μM DTT was added prior to use each day and then the buffer was stored on ice.
Human recombinant cyclophilin A (Cyp A) (Sigma C3805) enzyme was diluted to 1 μM with enzyme dilution buffer (20 mM HEPES pH 7.8, 40% glycerol, 50 μM DTT and 1 μM BSA) and stored at −20° C.
Succinimide-Ala-Ala-Pro-Phe-p-nitroanilide (SUC-AAPF-pNA) (from Bachem AG, L-1400), 20 mg/ml prepared in 0.5 M LiCl in trifluoroethanol.
The temperature is monitored by the use of a temperature probe. To prevent UV degradation of test compounds, the light below 290 nm was blocked using a glass slide in the light path. 1.5 ml of the assay buffer was put into a 3 ml quartz cuvette and cooled to 10.0±0.1° C. while stirring (vigorous but not so fast as to produce cavitation). The inhibitor was diluted in 100% DMSO, and then added to the assay to a maximum final concentration of 0.5% DMSO in the assay. A blank spectrum was obtained, then 3 μL of enzyme was added (2 nM final concentration) and then 3 μL substrate (60 μM final concentration) added. The absorbance was measured at 330 nm for 300 s or 500 s for blank runs (NOTE: the substrate must be added in one quick injection and the measurements started immediately to minimize mixing errors).
A first order rate equation was fitted to the absorbance data, for each concentration of inhibitor, to obtain the rate constant (the first 10 to 15 seconds were excluded as mixing causes errors in this portion of curve). The catalytic rate was calculated from the enzymatic rate constant minus the background rate constant. An exponential curve was generated using the catalytic rate constants versus the inhibitor concentration to obtain the Ki value for the inhibitor. The Ki value is indicative of the binding affinity between the test compound and cyclophilin A.

[3] = target: calcineurin/cyclophilin A (Homo sapiens (Human), UniProt P62937+P63098+Q08209); assay: Calcineurin Phosphatase (CaN) Assay (+CypA); format: biochemical
From the text: Calcineurin Phosphatase (CaN) Assay
The calcineurin phosphatase assay is a means for estimating the immunosuppressive potential of a test compound. Calcineurin is a serine-threonine protein phosphatase that on activation dephosphorylates members of the nuclear factor of activated T cells (NFAT), which are important in T lymphocyte activation.
To investigate the immunosuppressive potential of exemplary compounds of Formula I, which are cyclosporin analogs, their ability to inhibit calcineurin activity was measured in the presence and absence of Cyp A.
The CaN assay kit used is based on a colorimetric assay for measuring calcineurin phosphatase activity, and it is commercially available (Enzo Life Sciences and Calbiochem). Calmodulin is also required for calcineurin activity and RII phosphopeptide is used as an efficient peptide substrate for calcineurin. […] The detection of free phosphate released is based on the classic Malachite green assay.
Enzo Life Sciences CaN Assay Kit: BML-AK804
Malachite Green: BIOMOL Green™ reagent
Calmodulin (Human, recombinant): was thawed on ice, diluted 1:50 with 2× assay buffer, and then stored on ice.
Calcineurin: was thawed quickly, stored on ice immediately, diluted 1:12.5 with 1× assay buffer, and then stored on ice.
R-II Substrate: 915 μL ultrapure water (UPW) was added to the 1.5 mg vial substrate to give a final concentration of 0.75 mM.
Inhibitors: 2.5 mM inhibitor in 100% DMSO.
Cyp A: recombinant human CypA (Sigma C3805), 1 mg/ml; Recombinant 6-His tagged CypA prepared by the University of Edinburgh was also used.
Inhibitor dilutions: inhibitor compounds were diluted in UPW in polypropylene low-binding 96 well plates at 5× the final assay concentration.
Assay Setup: using the half area 96 well plates supplied with the kit, 10 μl UPW was added to duplicate wells to provide the non-inhibited control. 10 μl of the inhibitor or the inhibitor/Cyp A complex was added to the appropriate sample wells. 25 μl of the 2× assay buffer with CaM was added to all wells, then 5 μl of CaN was added to all wells (40 U per well final concentration) except duplicate ‘no calcineurin blank’ wells to which 5 μL 1× assay buffer was added. The assay plate was placed in an oven at 30° C. for 15 minutes to equilibrate to the reaction temperature. The reaction was started by the addition of 10 μl RII-peptide (0.15 mM final concentration). The reaction was allowed to proceed at 30° C. for a time period in which the reaction is linear for about 60 minutes. The reaction was then terminated by adding 100 μl of the Malachite Green reagent. The color was allowed to develop for 15-30 minutes at room temperature before the absorbance at 620 nm was measured using a plate reader (Molecular Devices—SpectraMax M5). The data were analyzed by subtracting ‘no Calcineurin blank’ from all the absorbance readings and plotting the background corrected absorbances against Log10 inhibitor concentration. A sigmoidal-dose response curve was fitted to the data using GraphPad Prism Software.
It exerts its immunosuppressive activity by binding to cyclophilin A to form a complex, which then binds to calcineurin and thereby inhibits calcineurin activity.

[4] = read-out: Protease-free PPIase Assay Ki, human recombinant Cyp A, 10 °C
[5] = in the presence of Cyp A, 1:1 complex with inhibitor, read-out: Calcineurin Phosphatase (CaN) Assay (+CypA) IC50
[6] = 35 mM HEPES buffer pH 7.8, aqueous buffer, 35 mM HEPES pH 7.8, 1% DMSO, 18 h, read-out: Water Solubility Assay, concentration at which the compound remains in solution

Row | solubility at 18 h ([1]; pH 7.8, aqueous buffer) | pIC50 [3, 5] | pKi [2] | SMILES | pKi [2, 4] | pIC50 [3] | solubility at 18 h [1, 6]
1 | 75 to 100 µM (≈ 98.5 to 131 µg/mL) | 5.80 |  | CC[C@H]1NC(=O)[C@@H]([C@H](O)[C@H](C)CCCc2ccccn2)N(C)C(=O)[C@@H](C(C)C)N(C)C(=O)[C@@H](CC(C)C)N(C)C(=O)[C@@H](CC(C)C)N(C)C(=O)[C@H](C)NC(=O)[C@@H](C)NC(=O)[C@@H](CC(C)C)N(C)C(=O)[C@@H](C(C)C)NC(=O)[C@H](CC(C)C)N(C)C(=O)[C@@H](SC)N(C)C1=O [Compound 35] | 8.36 |  | 
2 | > 100 µM | 5.33 | 8.51 | CC[C@H]1NC(=O)[C@@H]([C@H](O)[C@H](C)CCCc2ccccn2)N(C)C(=O)[C@@H](C(C)C)N(C)C(=O)[C@@H](CC(C)C)N(C)C(=O)[C@@H](CC(C)C)N(C)C(=O)[C@H](C)NC(=O)[C@@H](C)NC(=O)[C@@H](CC(C)C)N(C)C(=O)[C@@H](C(C)C)NC(=O)[C@H](CC(C)C)N(C)C(=O)[C@@H](CO)N(C)C1=O [Compound 34] |  |  | 
3 |  | 5.06 | 8.82 | CC[C@H]1NC(=O)[C@@H]([C@H](O)[C@H](C)CCCc2ccc(F)cn2)N(C)C(=O)[C@@H](C(C)C)N(C)C(=O)[C@@H](CC(C)C)N(C)C(=O)[C@@H](CC(C)C)N(C)C(=O)[C@H](C)NC(=O)[C@@H](C)NC(=O)[C@@H](CC(C)C)N(C)C(=O)[C@@H](C(C)C)NC(=O)[C@H](CC(C)C)N(C)C(=O)[C@@H](C)N(C)C1=O [Compound 14, [(2S,3R,4R)-7-(5-Fluoro-pyridin-2-yl)-3-hydroxy-4-methyl-2-(methylamino)-heptanoic acid]^1 [(R)-methyl-Sar]^3 cyclosporin A] |  |  | 

The remaining lines, values behind:

Row | SMILES | solubility at 18 h ([1]; pH 7.8, aqueous buffer) | pIC50 [3, 5] | pKi [2] | pKi [2, 4] | pIC50 [3] | solubility at 18 h [1, 6]
4 | CC[C@H]1NC(=O)[C@@H]([C@H](O)[C@H](C)CCCc2ncco2)N(C)C(=O)[C@@H](C(C)C)N(C)C(=O)[C@@H](CC(C)C)N(C)C(=O)[C@@H](CC(C)C)N(C)C(=O)[C@H](C)NC(=O)[C@@H](C)NC(=O)[C@@H](CC(C)C)N(C)C(=O)[C@@H](C(C)C)NC(=O)[C@H](CC(C)C)N(C)C(=O)[C@@H](C)N(C)C1=O [Compound 24] | > 100 µM |  |  |  |  | 
5 | CC[C@H]1NC(=O)[C@@H]([C@H](O)[C@H](C)Cc2nccn2CCN2CCOCC2)N(C)C(=O)[C@@H](C(C)C)N(C)C(=O)[C@@H](CC(C)C)N(C)C(=O)[C@@H](CC(C)C)N(C)C(=O)[C@H](C)NC(=O)[C@@H](C)NC(=O)[C@@H](CC(C)C)N(C)C(=O)[C@@H](C(C)C)NC(=O)[C@H](CC(C)C)N(C)C(=O)[C@@H](C)N(C)C1=O [Compound 2, [(2S,3R,4R)-3-Hydroxy-4-methyl-2-(methylamino)-5-(1-(N-morpholino-ethyl)-1H-imidazol-2-yl)-pentanoic acid]^1 [(R)-methyl-Sar]^3 cyclosporin A] |  |  |  | 8.34 | < 5.00 | > 100 µM
6 | CC[C@H]1NC(=O)[C@@H]([C@H](O)[C@H](C)Cc2nccn2Cc2ccccn2)N(C)C(=O)[C@@H](C(C)C)N(C)C(=O)[C@@H](CC(C)C)N(C)C(=O)[C@@H](CC(C)C)N(C)C(=O)[C@H](C)NC(=O)[C@@H](C)NC(=O)[C@@H](CC(C)C)N(C)C(=O)[C@@H](C(C)C)NC(=O)[C@H](CC(C)C)N(C)C(=O)[C@@H](C)N(C)C1=O [Compound 5, [(2S,3R,4R)-3-Hydroxy-4-methyl-2-(methylamino)-5-(1-(pyridin-2-yl-methyl)-1H-imidazol-2-yl)-pentanoic acid]^1 [(R)-methyl-Sar]^3cyclosporin A] |  | 5.07 |  | 8.39 |  | > 100 µM
7 | CC[C@H]1NC(=O)[C@@H]([C@H](O)[C@H](C)Cc2nccn2CCC(F)(F)F)N(C)C(=O)[C@@H](C(C)C)N(C)C(=O)[C@@H](CC(C)C)N(C)C(=O)[C@@H](CC(C)C)N(C)C(=O)[C@H](C)NC(=O)[C@@H](C)NC(=O)[C@@H](CC(C)C)N(C)C(=O)[C@@H](C(C)C)NC(=O)[C@H](CC(C)C)N(C)C(=O)[C@@H](C)N(C)C1=O [Compound 8, [(2S,3R,4R)-3-Hydroxy-4-methyl-2-(methylamino)-5-[3-(3,3,3-trifluoro-propyl)-3H-imidazol-2-yl]-pentanoic acid]^1 [(R)-methyl-Sar]^3 cyclosporin A] |  | < 5.00 |  | 8.13 |  | 
8 | CC[C@H]1NC(=O)[C@@H]([C@H](O)[C@H](C)CCCc2cn3c(n2)CCCC3)N(C)C(=O)[C@@H](C(C)C)N(C)C(=O)[C@@H](CC(C)C)N(C)C(=O)[C@@H](CC(C)C)N(C)C(=O)[C@H](C)NC(=O)[C@@H](C)NC(=O)[C@@H](CC(C)C)N(C)C(=O)[C@@H](C(C)C)NC(=O)[C@H](CC(C)C)N(C)C(=O)[C@@H](C)N(C)C1=O [Compound 19] |  |  |  | 8.27 | < 5.00 | 
9 | CC[C@H]1NC(=O)[C@@H]([C@H](O)[C@H](C)Cc2nc3ccccc3[nH]2)N(C)C(=O)[C@@H](C(C)C)N(C)C(=O)[C@@H](CC(C)C)N(C)C(=O)[C@@H](CC(C)C)N(C)C(=O)[C@H](C)NC(=O)[C@@H](C)NC(=O)[C@@H](CC(C)C)N(C)C(=O)[C@@H](C(C)C)NC(=O)[C@H](CC(C)C)N(C)C(=O)CN(C)C1=O [Compound 10, [(2S,3R,4R)-1-(1H-Benzimidazol-2-yl)-3-hydroxy-4-methyl-2-(methylamino)pentanoic acid]^1 cyclosporin A] | 25 to 50 µM (≈ 32 to 63.9 µg/mL) |  |  |  |  | 
